This is an account of results in patent publication US7179921B2, “Indoline and tetrahydro-quinolines as prodrugs for tumour treatment” (School of Pharmacy, University of London, priority 2001, dated 2007).

In this data set the test system is Chinese Hamster Ovary (CHO) cell. Description: Cell culture based cytotoxicity measurement (MTT) with and without rat liver microsomal activation. As to conditions: for IC50: Cricetulus griseus, CHO, cells incubated 24 hours, MTT, mean±sd, three experiments. Here is the method:
Test compound activation by CYP enzymes was carried out using NADPH supplemented rat liver microsomes. Incubation mixtures comprised microsomal protein (1 mg/ml), reduced-nicotinamide adenine dinucleotide phosphate (NADPH,10 mM) and phosphate buffer (pH7.4, 100 mM). Test compound (0.01–100 μM final concentration) in DMSO (20 μl ) was added to the microsomal incubation mixtures (0.5 ml) and incubated for 60 min at 37C. Control incubates contained test compound and microsomal incubation mixture terminated at 0 time. All incubations were terminated by addition of an equal volume of ice-cold acetonitrile and microfuged for 3 min. Aliquots of the supernatant were added to cells in culture.
Chinese Hamster Ovary (CHO) cell were grown in MEM supplemented with 10% dialysed FBS and G418 (400 μg/ml). All cells were seeded at an initial density of 1000 cells/well in 96-well-plates, incubation at 37° C. for 24 hours. Aliquots (0.1 ml) of the test compound/microsomal/acetonitrile supernatnant was then added to the CHO cells. Cells were then incubated for 24 hours at 37° C., 5% CO2. After this time period MTT (50 μl; 2 mg/ml stock solution) was added to each well and cells were incubated for a further 4 hours. During this time period MTT, a hydrogen acceptor tetrazolium salt, is reduced to formazan dye by mitochondrial dehydrogenase of viable cells. The media was aspirated from cells and DMSO (100 μl/well) added to solubilise the is coloured formazan dye. Absorbance of the formazan dye in the 96-well-plates was then determined at 550 nm. The effect of microsomal activation by the test compound on the arrest of CHO cell growth could be determined by comparing the IC50 (concentration that inhibited cell growth by 50%) with and without microsomal incubation.
Effect of compound 3.5 and its metabolism (activation) product on the survival of Chinese hamster ovary cells in culture. Cells were incubated for 24 hours with supernatants from reaction mixtures of compound 3.5 with NADPH fortified rat liver microsomes. […] Values are expressed as the mean±sd for three experiments. […]

Marks after values point to notes of the source that are not given here.

As to `COc1ccc2[nH]c(C(=O)N3CC(CCl)c4ccccc43)cc2c1` (stereo not drawn) [compound 3.5, 3-(Chloromethyl)-1--[(5-methoxyindol-2-yl)carbonyl]indoline], the “AF = activity factor, ratio of IC50 cytotoxicity values obtained for ± compound activation” value (CHO cells, IC50 −activation / IC50 +activation) is 42.4*. The IC50 is, setting by setting: (control incubate terminated at 0 time (no microsomal activation)) 5510 ± 230 nM; (supernatant after 60 min incubation with NADPH supplemented rat liver microsomes) 130 ± 30 nM.
